# Source: patent US8633251B2, “Derivatives of aminoalkanols, method of obtaining of aminoalkanols and their use” (Uniwersytet Jagiellonski, priority 2008, dated 2014)
# Experiments:
# [1] = system: maximal electroshock seizures; assay: Maximum Electroshock Seizure (MES) test, mice; type: in vivo; details: mice
# Procedure: (§1) In order to define anticonvulsant activity, screening tests were performed, using animal models of seizures. […] Each substance (after dissolving in methylcellulose) was normally tested in doses 30, 100, and 300 mg/kg body weight (b.w.) (mice) or in 30 and 50 mg/kg b.w. (rats) in two possible routes of administration: intraperitoneal (i.p.) or oral (p.o.). Appropriate tests were performed 0.5 and 4 h after administration of the compound. […] (mice) the tests were also performed in doses 10 and 3 mg/kg b.w.
# Maximum Electroshock Seizure (MES) test is an electric test, verifying activity towards generalized tonic-clonic seizures (grand mal epilepsy). […] Its procedure consists in administration to an animal a mentioned dose, and after 0.5 or 4 h attaching corneal electrodes (after anesthetic eye-drops: 0.5% tetracaine hydrochloride in 0.9% NaCl) and turning on electric current (60 Hz, 0.2 s, 50 mA (mice) or 150 mA (rats)). […] Normally, in the dose 30 mg/kg b.w. the test is done in 1 mouse after 0.5 or 4 h, in the dose 100 mg/kg b.w.—in 3 mice, and in the dose 300 mg/kg b.w.—in 1 mouse.
# neurotoxicity (rotarod) = assay: Neurotoxicity test (TOX), rotarod, mice; type: in vivo
# Procedure: as §1
# It is performed with use of rotarod test. The animal is placed on a plastic rod (1 inch in diameter), rotating 6 rpm. The rod is placed on a level discouraging the animal to jump off. […] Neurotoxicity is stated if the animal cannot stay on the rod for 1 min. in any of 3 trials. Normally the test is performed in dose 30 mg/kg b.w. in 4 mice (0.5 h) and in 2 mice (4 h), in the dose 100 mg/kg b.w. in 8 mice (0.5 h) and in 4 mice (4 h) and in the dose 300 mg/kg b.w. in 4 mice (0.5 h) and 2 mice (4 h).
# [2] = dose 100 mg/kg b.w., time 0.5 h
# [3] = mice, dose 100 mg/kg b.w., time 0.5 h
# [4] = mice, dose 300 mg/kg b.w., time 0.5 h
# [5] = mice, dose 30 mg/kg b.w., 0.5 h
# [6] = mice, dose 100 mg/kg b.w., 0.5 h
# [7] = mice, dose 300 mg/kg b.w., 0.5 h
SMILES,"MES, No. of protected animals/No. of used animals [1, 2]","TOX, No. of animals exhibiting motor impairment/no. of used animals (neurotoxicity (rotarod); mouse, in vivo, 100 mg/kg)","TOX, No. of animals exhibiting motor impairment/no. of used animals (neurotoxicity (rotarod); mouse, in vivo, 300 mg/kg)","MES, No. of protected animals/No. of used animals ([1]; dose 100 mg/kg b.w., 0.5 h)","TOX, No. of animals exhibiting motor impairment/no. of used animals (neurotoxicity (rotarod); [6])","TOX, No. of animals exhibiting motor impairment/no. of used animals (neurotoxicity (rotarod); [7])",further results
"Cc1cccc(C)c1OCCN(C)C(C)CO.Cl (racemic) [Compound 14, R,S-2N-[(2,6-dimethylphenoxy)ethyl]-2N-methylamino-1-propanol hydrochloride]",1/1,8/8,4/4,–,–,–,"MES, No. of protected animals/No. of used animals ([1]; dose 30 mg/kg b.w., time 0.5 h): 1/1; TOX, No. of animals exhibiting motor impairment/no. of used animals (neurotoxicity (rotarod); mouse, in vivo, 30 mg/kg): 1/4"
"Cc1cccc(C)c1OCCN(C)CC(O)c1ccccc1.Cl (racemic) [Compound 22, R,S-2N-[(2,6-dimethylphenoxy)ethyl]-2N-methylamino-1-phenylethanol hydrochloride]",2/2,–,–,–,–,–,"MES, No. of protected animals/No. of used animals ([1]; dose 100 mg/kg b.w., time 4 h): 2/2; TOX, No. of animals exhibiting motor impairment/no. of used animals (neurotoxicity (rotarod); [3]): 8/8; TOX, No. of animals exhibiting motor impairment/no. of used animals (neurotoxicity (rotarod); [4]): 4/4"
"Cc1cccc(OCCCNC(C)CO)c1C (racemic) [Compound 46, R,S-2N-[(2,3-dimethylphenoxy)propyl]amino-1-propanol]",3/3,8/8,4/4,–,–,–,–
"CCC(CO)NCCCOc1cccc(C)c1C (racemic) [Compound 48, R,S-2N-[(2,3-dimethylphenoxy)propyl]amino-1-butanol]",3/3,8/8,4/4,–,–,–,–
"Cc1cccc(OCCCNCC(O)c2ccccc2)c1C (racemic) [Compound 49, R,S-2N-[(2,3-dimethylphenoxy)propyl]amino-1-phenylethanol]",–,–,–,–,–,–,"MES, No. of protected animals/No. of used animals ([1]; dose 300 mg/kg b.w., time 0.5 h): 1/1; TOX, No. of animals exhibiting motor impairment/no. of used animals (neurotoxicity (rotarod); mice, dose 30 mg/kg b.w., time 0.5 h): 1/4; TOX, No. of animals exhibiting motor impairment/no. of used animals (neurotoxicity (rotarod); mice, dose 30 mg/kg b.w., time 4 h): 1/2; TOX, No. of animals exhibiting motor impairment/no. of used animals (neurotoxicity (rotarod); [3]): 6/8; TOX, No. of animals exhibiting motor impairment/no. of used animals (neurotoxicity (rotarod); mice, dose 100 mg/kg b.w., time 4 h): 3/4; TOX, No. of animals exhibiting motor impairment/no. of used animals (neurotoxicity (rotarod); [4]): 4/4; TOX, No. of animals exhibiting motor impairment/no. of used animals (neurotoxicity (rotarod); mice, dose 300 mg/kg b.w., time 4 h): 2/2"
"Cc1cccc(C)c1OCCCNCC(C)O (racemic) [Compound 50, R,S-1N-[(2,6-dimethylphenoxy)propyl]amino-2-propanol]",3/3,–,4/4,–,–,–,"MES, No. of protected animals/No. of used animals ([1]; dose 30 mg/kg b.w., time 0.5 h): 1/1; TOX, No. of animals exhibiting motor impairment/no. of used animals (neurotoxicity (rotarod); mouse, in vivo, 30 mg/kg): 3/4"
"Cc1cccc(C)c1OCCCNC(C)CO (racemic) [Compound 51, R,S-2N-[(2,6-dimethylphenoxy)propyl]amino-1-propanol]",–,–,4/4,3/3,–,–,"MES, No. of protected animals/No. of used animals ([1]; dose 30 mg/kg b.w., 0.5 h): 1/1; TOX, No. of animals exhibiting motor impairment/no. of used animals (neurotoxicity (rotarod); mouse, in vivo, 30 mg/kg): 2/4"
"CCC(CO)NCCCOc1c(C)cccc1C.Cl (racemic) [Compound 55, R,S-2N-[(2,6-dimethylphenoxy)propyl]amino-1-butanol hydrochloride]",–,8/8,4/4,3/3,–,–,"MES, No. of protected animals/No. of used animals ([1]; dose 30 mg/kg b.w., 0.5 h): 1/1"
"Cc1cccc(C)c1OCCCNCC(O)c1ccccc1 (racemic) [Compound 56, R,S-2N-[(2,6-dimethylphenoxy)propyl]amino-1-phenylethanol]",–,–,–,1/1,8/8,4/4,"TOX, No. of animals exhibiting motor impairment/no. of used animals (neurotoxicity (rotarod); [5]): 2/4"
"Cc1cccc(Cl)c1OCCCNC(C)CO (racemic) [Compound 57, R,S-2N-[(2-chlor-6-methylphenoxy)propyl]amino-1-propanol]",–,–,–,–,8/8,4/4,"TOX, No. of animals exhibiting motor impairment/no. of used animals (neurotoxicity (rotarod); [5]): 4/4; TOX, No. of animals exhibiting motor impairment/no. of used animals (neurotoxicity (rotarod); mice, dose 30 mg/kg b.w., 4 h): 1/2"
"CCC(CO)NCCCOc1c(C)cccc1Cl.Cl (racemic) [Compound 58, R,S-2N-[(2-chlor-6-methylphenoxy)propyl]amino-1-butanol hydrochloride]",–,–,–,2/3,6/8,4/4,"TOX, No. of animals exhibiting motor impairment/no. of used animals (neurotoxicity (rotarod); mice, dose 300 mg/kg b.w., 4 h): 1/1"
"CNC(=O)C(C)NC(=O)COc1c(C)cccc1C (racemic) [Compound 67, D,L-2N-[(2,6-dimethylphenoxy)acetyl]aminopropionic acid N-methylamide]",–,–,–,–,1/8,4/4,"responders at 100 mg/kg ([1]; Mus musculus, dose 100 mg/kg b.w., 0.5 h, read-out: MES, No. of protected animals/No. of used animals (converted)): 66.7%; responders at 300 mg/kg ([1]; Mus musculus, dose 300 mg/kg b.w., 0.5 h, read-out: MES, No. of protected animals/No. of used animals): 100%"
